Legend:
[1] = Release of drug from hydrogel lens in contact with the cornea; format: in vivo; settings: after 2 hours of contact with the cornea; lens with about 700 ng beclomethasone or 450 ng prednisolone
Protocol: In some embodiments, such as with classes of corticosteroids, a single hydrogel contact lens may be loaded with about […] of active compound. For instance, experiments have shown that an effective concentration of beclomethasone can be delivered to the posterior segment by treating with a lens that includes about 700 ng of the compound. […] In each case, about 95% of the drug exited the lens after 2 hours of contact with the cornea. It is believed that the consistent pore size of the hydrogels provides for a consistent delivery rate of a variety of compounds.

[2] = rabbit, in vivo
Protocol: A series of experiments were designed to determine the efficacy of delivery to the posterior segment from a hydrogel positioned on the cornea.
In the first experiment, rabbits were treated by placing hydrogel lenses on the corneas of the animals for a period of 3 hours. Each lens was infused with about 450 ng of prednisolone incorporated therein. The lenses were placed onto the eyes of anesthetized animals (closed eye period) for the three hour period after which time the lenses were removed. The procedure was repeated about every other day or every three days until 5 applications had been completed.
After completion of the five applications, each eye of the animal was analyzed for prednisolone concentration using LC/MS/MS. The portion of the posterior segment that was analyzed included macula, retina, surrounding muscle, nerve and circulatory, including connective tissues and cells. Sample size typically was about 800 mg. […] The limit of quantification for prednisolone was 0.5 ng/mL and for prednisone was 0.05 ng/mL.

Structure (SMILES) | drug exited the lens [1] | average concentration in the posterior segment relative to the amount provided in the hydrogel lenses [2]
C[C@H]1C[C@H]2[C@@H]3CCC4=CC(=O)C=C[C@]4(C)[C@@]3(Cl)[C@@H](O)C[C@]2(C)[C@@]1(O)C(=O)CO [Beclomethasone, beclomethasone] | about 95% | 
C[C@]12C=CC(=O)C=C1CC[C@@H]1[C@@H]2[C@@H](O)C[C@@]2(C)[C@H]1CC[C@]2(O)C(=O)CO [Prednisolone, prednisolone] | about 95% | greater than 10%

From patent US9216106B2, “Device and method for the delivery of drugs for the treatment of posterior segment disease” (DIRECTCONTACT LLC, priority 2003, dated 2015)
